In brackets after ≈: the same amount, converted by molar mass. Entries after “also recorded” stand apart in the source; their conditions may differ. Like-named read-outs stand apart in the source and are kept apart here.
Columns and labels:
[1] = system: S. epidermidis ATCC12228; assay: MIC assay (broth dilution in tubes, CLSI); assay type: cell-based, Staphylococcus epidermidis; settings: Staphylococcus epidermidis
Description: (§1) Staphylococcus epidermidis ATCC12228 and RP62A strains were purchased from the American Type Culture Collection (ATCC, Manassas, USA). Staphylococcus aureus ATCC29213, Escherichia coli ATCC25922 and Pseudomonas aeruginosa ATCC27853 were kindly provided by Dr. Bijie Hu at Zhongshan Hospital (Shanghai, China). S. epidermidis strains se527, se886, se847, seG203, Streptococcus pyogenes strain 144, and Streptococcus mutans strain 128 were all clinical isolates from Zhongshan Hospital and Huashan Hospital (Shanghai, China). If not stated otherwise, S. epidermidis and S. aureus strains were grown at 37°C in tryptic soy broth (TSB, Oxoid) containing 0.25% glucose, E. coli and P. aeruginosa strains were grown at 37°C in Luria-Bertani (LB, Oxoid).
(§2) MIC assays for the antibacterial activities of the compounds were performed according to the broth micro-dilution (in tubes) method of the Clinical and Laboratory Standards Institute (CLSI) of America. The Minimal Bactericidal Concentration (MBC) was obtained by subculturing 100 μl from each negative (no visible bacterial growth) tube from the MIC assay, onto substance-free Mueller-Hinton agar plates. The plates were incubated at 37°C for 24 hours, and the MBC was defined as the lowest concentration of substance which produced subcultures growing no more than five colonies on each plate.

[2] = system: S. epidermidis RP62A; assay: MIC assay (broth dilution in tubes, CLSI); assay type: cell-based; settings: Staphylococcus epidermidis
Description: as §1, §2

[3] = system: S. aureus ATCC29213; assay: MIC assay (broth dilution in tubes, CLSI); assay type: cell-based, Staphylococcus aureus; settings: for MIC: Staphylococcus aureus, S. aureus ATCC29213, read-out: Minimal inhibitory concentration (MIC)
Description: as §1, §2

[4] = system: S. pyogenes 144; assay: MIC assay (broth dilution in tubes, CLSI); assay type: cell-based, Streptococcus pyogenes; settings: for MIC: Streptococcus pyogenes, S. pyogenes 144, read-out: Minimal inhibitory concentration (MIC)
Description: as §1, §2

[5] = system: S. mutans 128; assay: MIC assay (broth dilution in tubes, CLSI); assay type: cell-based, Streptococcus mutans; settings: for MIC: Streptococcus mutans, S. mutans 128, read-out: Minimal inhibitory concentration (MIC)
Description: as §1, §2

[6] = system: S. epidermidis ATCC12228; assay: Minimal bactericidal concentration (MBC) assay; assay type: cell-based; settings: Staphylococcus epidermidis
Description: as §2

[7] = system: S. epidermidis RP62A; assay: Minimal bactericidal concentration (MBC) assay; assay type: cell-based; settings: Staphylococcus epidermidis
Description: as §2

[8] = biological target: T1, YycG' protein (Staphylococcus epidermidis, UniProt Q8CU87); assay: Inhibition of YycG' ATPase activity / autophosphorylation (Kinase-Glo Luminescent Kinase Assay); assay type: biochemical; settings: 3 μM ATP; for IC50: 4 μg YycG' protein, read-out: IC50 for YycG'; for inhibition at 50 µM: compound 50 μM, 4 μg protein, read-out: Inhibition of YycG' phosphorylation (decrease of ATPase activity)
T1 construct: of YycG (370aa to 610aa) was amplified by PCR; His-tag (pET28a) (N); made in house; host or cells: E. coli BL21 (pET28a, pETYycG')
T1 sequence (Q8CU87 370-610): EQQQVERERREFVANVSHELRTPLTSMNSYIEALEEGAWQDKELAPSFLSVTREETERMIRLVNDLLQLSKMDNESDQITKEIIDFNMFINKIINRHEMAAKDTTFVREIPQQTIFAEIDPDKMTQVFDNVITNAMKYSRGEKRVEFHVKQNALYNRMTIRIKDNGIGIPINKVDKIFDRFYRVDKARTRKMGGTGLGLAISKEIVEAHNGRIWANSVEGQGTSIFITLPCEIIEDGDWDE
Description: The inhibitory activities of the compounds for the ATPase activity of the YycG' protein was measured using the Kinase-Glo™ Luminescent Kinase Assay (Promega, Madison, USA). Briefly, 4 μg YycG' protein was pre-incubated with a series of dilution of compounds in the reaction buffer (40 mM Tris [pH 7.5], 20 mM MgCl2, and 0.1 mg/ml BSA), at 25°C for 30 min. Then 3 μM ATP was added for another incubation of 30 min at 25°C, and Kinase-Glo™ Reagent was added to detect the rest amount of ATP, as recorded from luminescence measurements (RLU). In parallel, theYycG' protein with no addition of compounds was used as the control. The rate of inhibiting protein phosphorylation (Rp) by the compounds was calculated from equation 1:
Rp=RLU(YycG^′+compound+ATP+Reagent)−RLU(YycG^′+ATP+Reagent)/RLU(ATP+Reagent)−RLU(YycG^′+ATP+Reagent)×100% (1) MathType@MTEF@5@5@+=feaafiart1ev1aaatCvAUfKttLearuWrP9MDH5MBPbIqV92AaeXatLxBI9gBaebbnrfifHhDYfgasaacH8akY=wiFfYdH8Gipec8Eeeu0xXdbba9frFj0=OqFfea0dXdd9vqai=hGuQ8kuc9pgc9s8qqaq=dirpe0xb9q8qiLsFr0=vr0=vr0dc8meaabaqaciaacaGaaeqabaqabeGadaaakeaacqqGsbGudaWgaaWcbaGaeeiCaahabeaakiabg2da9maalaaabaGaeeOuaiLaeeitaWKaeeyvauLaeiikaGIaeeywaKLaeeyEaKNaee4yamMafe4raCKbauaacqGHRaWkcqqGJbWycqqGVbWBcqqGTbqBcqqGWbaCcqqGVbWBcqqG1bqDcqqGUbGBcqqGKbazcqGHRaWkcqqGbbqqcqqGubavcqqGqbaucqGHRaWkcqqGsbGucqqGLbqzcqqGHbqycqqGNbWzcqqGLbqzcqqGUbGBcqqG0baDcqGGPaqkcqGHsislcqqGsbGucqqGmbatcqqGvbqvcqGGOaakcqqGzbqwcqqG5bqEcqqGJbWycuqGhbWrgaqbaiabgUcaRiabbgeabjabbsfaujabbcfaqjabgUcaRiabbkfasjabbwgaLjabbggaHjabbEgaNjabbwgaLjabb6gaUjabbsha0jabcMcaPaqaaiabbkfasjabbYeamjabbwfavjabcIcaOiabbgeabjabbsfaujabbcfaqjabgUcaRiabbkfasjabbwgaLjabbggaHjabbEgaNjabbwgaLjabb6gaUjabbsha0jabcMcaPiabgkHiTiabbkfasjabbYeamjabbwfavjabcIcaOiabbMfazjabbMha5jabbogaJjqbbEeahzaafaGaey4kaSIaeeyqaeKaeeivaqLaeeiuaaLaey4kaSIaeeOuaiLaeeyzauMaeeyyaeMaee4zaCMaeeyzauMaeeOBa4MaeeiDaqNaeiykaKcaaiabgEna0kabigdaXiabicdaWiabicdaWiabcwcaLiaaxMaacaWLjaWaaeWaaeaacqaIXaqmaiaawIcacaGLPaaaaaa@A46C@
IC50 (the concentration of inhibition of 50% YycG' protein autophosphorylation) was obtained by using the Origin v7.0 software (OriginLab, Northampton, USA).

[9] = system: SrrB'; assay: Inhibition of SrrB' autophosphorylation (Kinase-Glo); assay type: biochemical, S. epidermidis; settings: compound 50 μM, 4 μg protein, 3 μM ATP
[10] = Cytotoxicity on Vero cell (MTT, Cell Proliferation Kit I); assay type: cell-based, African Green-monkey; settings: African green monkey, Vero cells, highest concentration tested 200 μM
Description: (§3) Cytotoxicity of the antibacterial compounds on cultured Vero cell was measured by using the Cell Proliferation Kit I (MTT) (Roche, Indianapolis, USA) according to the manufacturer's protocol. Addition of DMSO (1%) in the medium produced a slight cytotoxicity on Vero cell, which could easily be corrected for. Each assay was performed in quadruplicate and repeated three times. The results were converted to percentage of the control (cells only treated with 1% DMSO) and CC50 (concentrations that produce a 50% cytotoxicity effect on Vero cell) was calculated by the Origin v7.0 software (OriginLab, Northampton, USA). Hemolytic activities of the compounds were determined by using healthy human erythrocytes. The erythrocytes were washed three times in sterile saline and resuspended to 5% prior to the assay. […] Cells without compound treatment and cells with 1% Triton-100 treatment were used as 0% and 100% hemolysis controls, respectively. The cell suspensions were incubated for 1 hour at 37°C and centrifuged at 1000×g for 10 min. Volumes of 100 μl supernatants were transferred to another sterile plate and hemoglobin release from the cells was determined at 570 nm. […] The hemolysis assays were repeated twice.

[11] = Erythrocyte hemolysis assay; assay type: cell-based, human; settings: human, erythrocytes (5% suspension), 1 hour, 37°C;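 further: compounds tested at their MIC and at 4× MIC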
Description: as §3

[12] = system: S. epidermidis RP62A mature biofilm cells; assay: Killing biofilm cells of S. epidermidis (CFU count); assay type: cell-based, Staphylococcus epidermidis
Description: An overnight culture of S. epidermidis strain RP62A was diluted 1:100 in TSB containing 0.25% glucose, then 1 ml bacterial suspension was inoculated into the wells of sterile 12-well polystyrene microtiter plates (Falcon) incubated at 37°C for 24 h. The plates with mature biofilm were washed gently four times with sterile PBS before adding fresh TSB containing the various compounds at their MBC values, and incubated at 37°C for 24 h. The plates were washed again four times with sterile PBS, then the biofilm cells were scraped from the plate and resuspended in 1 ml PBS, and violently vortexed to disintegrate clumps of cells. Next, the suspension was diluted gradually with sterile PBS and subcultured onto substance-free Mueller-Hinton agar plates, incubated at 37°C for 24 h, and the colonies were counted. The fresh medium containing vancomycin at the MBC value and substance-free fresh medium served as the controls. The experiment was repeated three times.

[13] = ATCC12228, Table 2, as tested on S. epidermidis ATCC 12228, read-out: MICs
[14] = S. epidermidis ATCC12228 (non-biofilm-forming strain), read-out: Minimal inhibitory concentration (MIC)
[15] = S. epidermidis RP62A (biofilm-forming strain), read-out: Minimal inhibitory concentration (MIC)
[16] = S. epidermidis RP62A, read-out: Minimal bactericidal concentration (MBC)
[17] = at 4 × MIC (number in parenthesis)
[18] = at MIC for S. epidermidis ATCC12228

Row | Structure (SMILES) | MIC [1, 13] [µM] | MIC [1, 14] [µM] | MIC [2, 15] [µM] | Inhibitory effect against S. aureus [3] | MIC [3] [µM] | Inhibitory effect against Streptococcus pyogenes [4] | MIC [4] [µM] | MIC [5] [µM] | MBC [6] [µM] | MBC [7, 16] [µM] | IC50 [8] [µM] | inhibition at 50 µM [8] [%] | Inhibition of SrrB' phosphorylation [9] [%] | CC50 [10] [µM] | hemolysis at 1 h [11, 17] [%] | hemolysis at 1 h [11, 18] [%] | further results
1 | O=C(NNC(=O)c1c(Br)c(Br)c(Br)c(Br)c1C(O)O)c1cc(Cl)ccc1O [Compound 1] | 50 | 50 | 50 | inhibited the growth | 50 (≈ 32.6 µg/mL) | inhibited the growth | 200 (≈ 130 µg/mL) | > 200 | 200 (≈ 130 µg/mL) | 200 | 48 | 52 | 3 | > 200 | < 0.1 | < 0.1 | –
2 | Cc1ccc(C(O)O)cc1-c1ccc(/C=N/NC(=O)c2cc3c(ccc4ccccc43)o2)o1 [Compound 4] | 12.5 | 12.5 | 12.5 | – | > 200 | only active against S. pyogenes | 50 (≈ 22 µg/mL) | > 200 | 50 (≈ 22 µg/mL) | 100 | 13.5 | 76 | 3 | > 200 | 0.4 | 0.1 | –
3 | CCOC(=O)C1=C(c2ccccc2)N=c2s/c(=C/c3ccc(-c4cccc(C(O)O)c4)o3)c(=O)n2C1c1ccc2c(c1)OCO2 (stereo not shown) [Compound 5] | 6.25 | 6.25 | 6.25 | effective | 6.25 (≈ 3.89 µg/mL) | effective | 1.56 (≈ 0.971 µg/mL) | 6.25 (≈ 3.89 µg/mL) | 25 (≈ 15.6 µg/mL) | 25 | 14 | 73 | – | > 200 | 0.3 | 0.1 | Inhibitory effect against Streptococcus mutans [5]: effective; Reduction of the CFU of the biofilm cells ([12]; 24-hour-old biofilm, at MBC value, relative to untreated control): more than 100 fold
4 | CN(C)[C@@H]1C(O)=C(C(N)=O)C(=O)[C@@]2(O)C(O)=C3C(=O)c4c(O)cccc4[C@@](C)(O)[C@H]3C[C@@H]12 [Tet, tetracycline, reference compound] | – | – | – | – | – | – | – | – | – | – | – | – | – | – | – | – | MIC ([1]; ATCC12228, conventional antibiotics used in the hemolysis assay, strain not printed at the place, read-out: MIC): 0.25 µg/mL
5 | CN[C@H](CC(C)C)C(=O)N[C@H]1C(=O)N[C@@H](CC(N)=O)C(=O)N[C@H]2C(=O)N[C@H]3C(=O)N[C@H](C(=O)N[C@H](C(=O)O)c4cc(O)cc(O)c4-c4cc3ccc4O)[C@H](O)c3ccc(c(Cl)c3)Oc3cc2cc(c3O[C@@H]2O[C@H](CO)[C@@H](O)[C@H](O)[C@H]2O[C@H]2C[C@](C)(N)[C@H](O)[C@H](C)O2)Oc2ccc(cc2Cl)[C@H]1O [Vancomycin, reference compound] | – | – | – | – | – | – | – | – | – | – | – | – | – | – | – | – | MIC ([2]; RP62A): 1 µg/mL; MBC ([7]; RP62A): 4 µg/mL; Killing of biofilm cells ([12]; concentration increased up to 128 μg/ml): no increased killing; also recorded: almost without effect
